Experimental data published in patent publication US12642809B2, “Fucosylation and immune modulation in cancer” (H. LEE MOFFITT CANCER CENTER AND RESEARCH INSTITUTE, INC., priority 2019, dated 2026).
“Also recorded” adds a separate entry of the source.

What was measured:
SW1 tumors = SW1 tumors in immunodeficient NSG mice fed with or without L-fuc; type: in vivo, mouse
Method: Four-to-six-week-old female C3HeN and male C57BL6 mice were purchased from Charles Rivers Laboratories for the indicated experiments. Four-to-six-week-old male NSG mice from the Lau laboratory breeding colony were used for the indicated experiments. Mice were housed in the Comparative Medicine Facility at H. Lee Moffitt Cancer Center and Research Institute. Mouse tumor volumes were measured using length, width and depth divided by 2. Generally, 10 mice were assigned to each indicated treatment cohort, and 1×10^6 melanoma cells were subcutaneously injected into the right rear flanks of the recipient mice. At each experimental endpoint, mice were humanely euthanized using CO2 inhalation in accordance to the American Veterinary Medical Association guidelines. […] All experiments were approved by the Institutional Animal Care and Use Committee (IACUC) in accordance with the National Research Council guidelines.
SW1 murine mouse melanoma cells were subcutaneously injected into the right rear flanks of NSG mice. After 7 days, when the tumors reached ˜150 mm^3, the mice were either supplemented with or without 100 mM L-fucose (Biosynth (Oak Terrace, IL)) via drinking water, which was provided ad libitum. When the tumors reached 2 cm^3, the animals were sacrificed.

HLA-DRB1 = test: Flow cytometry of cell surface HLA-DRB1 in melanoma cells; type: cell-based, human; details: 250 μM, 72 h, panel of melanoma cell lines
Method: Indicated cells were treated for 72 h with DMSO, 250 μM fucosyltransferase inhibitor (FUTi) (Millipore Sigma (St. Louis, MO)), or 250 μM of L-fucose (Biosynth (Oak Terrace, IL)). After 72 h, cells were stained with 0.1 μM PKH26 (Millipore Sigma (St. Louis, MO)) prior to fixation in 4% formaldehyde solution. The cells were stained with anti-HLA-DRB1 (rabbit anti-human HLA-DRB1 (0.2 μg/mL, ab92371, Abcam (Cambridge, UK)) and fluorescein AAL (0.2 μg/ml. Vector Labs (Burlingame, CA)), or anti-human or anti-mouse PD-L1 (Novus Biologicals (Centennial, CO) or Biolegend (San Diego, CA), respectively) overnight. The following day the cells were washed 3 times prior to adding AlexaFluor 594 donkey anti-rabbit (0.8 μg/mL, ThermoFisher Scientific (Waltham, MA)). Cells were washed 3 times and then subject to flow cytometric analyses using a FACSCalibur™ (BD Biosciences (San Jose, CA)). Samples were analyzed using FlowJo™ analysis software (BD Biosciences (San Jose, CA)). Median values of DRB1 and AAL were normalized to PKH26 values and statistical analysis was performed using GraphPad Prism™.

C[C@H](O)[C@@H](O)[C@@H](O)[C@H](O)C=O [L-fucose] was tested, and the “tumor growth with vs without L-fuc” value (SW1 tumors) was “no significant differences”, the “cell surface HLA-DRB1 relative to DMSO” value (HLA-DRB1) was “promotes cell surface abundance; also recorded: increased” and the “cell surface HLA-DRB1 relative to DMSO” value (HLA-DRB1; listed as L-fuc) was “increased”.
